{
  "source": "paper PMC8126724",
  "about": "“Infant-Associated Bifidobacterial β-Galactosidases and Their Ability to Synthesize Galacto-Oligosaccharides” (Frontiers in Microbiology, 2021)",
  "key": {"BgaD": {"test_system": "T1, BgaD", "T1 construct": "gene B8809_0415; His6-tagged, expressed in Lactococcus lactis (pNZ8150), Ni-purified; trimer", "test": "o-nitrophenol release, A420", "assay_type": "biochemical, Bifidobacterium longum subsp. longum", "settings": "0.1 M sodium acetate pH 6.5, 40 °C; unit mM, not in table", "from_the_text": "o-nitrophenol release, A420 on BgaD"}, "BgaE": {"test_system": "T2, BgaE", "T2 construct": "gene B8809_0611; tetramer", "test": "o-nitrophenol release, A420", "assay_type": "biochemical, Bifidobacterium longum subsp. longum", "settings": "0.1 M sodium acetate pH 6.5, 40 °C; unit mM, not in table", "from_the_text": "o-nitrophenol release, A420 on BgaE"}},
  "data": [
    {"compound": "O=[N+]([O-])c1ccccc1O[C@@H]1O[C@H](CO)[C@H](O)[C@H](O)[C@H]1O", "note": "[ONPG]", "values": [
      {"measurement": "Km", "setting": "BgaD", "value": 17, "unit": "mM"},
      {"measurement": "Km", "setting": "BgaE", "value": 11.1, "unit": "mM"}
    ]}
  ]
}
